Measured values as given in patent US20250066377A1, “AMINO CHROMEN-2-ONE MODULATORS OF POLRMT” (Pretzel Therapeutics, Inc., priority 2021, published 2025).

Target: POLRMT (Homo sapiens (Human), UniProt O00411)
Assay: POLRMT homogeneous TR-FRET mitochondrial transcription assay
Type: biochemical
Conditions: inhibition of POLRMT; TR-FRET detection of 407 bp RNA transcript; 7.5 nM POLRMT, 15 nM TFB2M, 30 nM TFAM, 60 minutes at 37° C.
Experimental: The inhibitory activity of the compounds of the present invention against POLRMT were determined by assays based on Bergbrede, T., et al., “An adaptable high-throughput technology enabling the identification of specific transcription modulators,” SLAC Discov., 22, 378-386 (2017).
The ability of some compounds of the present invention to inhibit POLRMT were determined in a homogeneous TR-FRET Assay using high-throughput screening in a 384-well plate format. This method is used to monitor the activity of mitochondrial transcription through measurement of its product, a 407 bp long RNA transcript. Detection of the product is facilitated by hybridization of two DNA-oligonucleotide probes to specific and adjacent sequences within the RNA product sequence. Upon annealing of the probes, two fluorophores are coupled directly to an acceptor nucleotide probe (ATTO647, 5′), or introduced via a coupled streptavidin with a biotinylated donor nucleotide probe (Europium cryptate) that is brought into sufficient proximity to serve as a fluorescence-donor-acceptor pair. Thus, a FRET signal at 665 nm is generated upon excitation at 340 nm.
Proteins used as transcription factors (POLRMT: NP_005026.3, TFAM: NP_003192.1, TFB2M: NP_071761.1) are diluted from their stocks to working concentrations of 1 μM, 20 μM and 4 μM respectively, in a dilution buffer containing 20 mM Tris-HCl (pH 8.0), 200 mM NaCl, 10% (v/v) glycerol, 1 mM Dithiothreitol (DTT), 0.5 mM EDTA.
DNA template is a pUC18 plasmid with the mitochondrial light strand promotor sequence (1-477) cloned between HindIII and BamHI sites. The DNA template is restriction linearized proximal to the promotor 3′-end (pUC-LSP).
The reaction mixture (10 uL) containing 7.5 nM POLRMT, 15 nM of TFB2M, 30 nM of TFAM, 0.5 nM of DNA template and 500 μM nucleotide triphosphate mix (NTPs) in a reaction buffer (containing 10 mM Tris-HCl (pH 7.5), 10 mM MgCl2, 40 mM NaCl, 10 mM DTT, 0.005% (w/v) Tween-20, 160 units/ml Rnase inhibitor and 0.1 mg/mL BSA) are dispensed to compounds in microplates, using a Thermo Multidrop® dispenser, and incubated at 37° C. in a VWR INCU-Line incubator for 60 minutes after mixing. No nucleotide triphosphate mix is added to negative control samples. Microplates with compounds to be tested in the assay are prepared from 10 mM compound stocks in 100% DMSO, equal amounts of DMSO without any compound are added to positive control and negative control samples.
During the incubation, a mix of the detection reagents is prepared in a buffer such that the enzymatic reaction is terminated due to chelating of Mg-ions and increased ionic strength, containing 50 mM Tris-HCl (pH 7.5), 700 mM NaCl, 20 mM EDTA, and 0.01% (w/v) Tween-20. Europium-streptavidin is pre-incubated with a 200-fold molar excess of a random sequence oligonucleotide to block unspecific binding of oligo, for two hours at ambient temperature in the dark. Afterwards, the blocked Europium-streptavidin is kept on ice until use.
At the end of the enzymatic reaction time, 5 μL detection oligo mix in the detection buffer is added, and assay plates are mixed and kept at ambient temperature for one hour, protected from light. The concentration of the Acceptor nucleotide oligo (e.g., ATTO647N-5′-[…]-3′) and Donor nucleotide oligo (e.g., bio-5′-AACACATCTCT(-bio)GCCAAACCCCA-bio-3′) in each assay well is 1 nM, and 3 nM, respectively.
After incubation with oligo mix, 5 μL of pre-blocked Europium-streptavidin reagent is dispensed to each assay well, assay plates are again mixed and kept at ambient temperature for one hour, protected from light.
The generated signal is measured with BMG Pherastar microtiter plate reader with a TRF light unit, using excitation at 340 nm, an integration time of 200 μs, and a delay time of 100 μs, before detection at 620 nm and 665 nm. The ratio of donor- and acceptor-fluorescence is used as a measure of the generated transcript product (i.e. enzymatic activity).

Chain of POLRMT (O00411 42-1230): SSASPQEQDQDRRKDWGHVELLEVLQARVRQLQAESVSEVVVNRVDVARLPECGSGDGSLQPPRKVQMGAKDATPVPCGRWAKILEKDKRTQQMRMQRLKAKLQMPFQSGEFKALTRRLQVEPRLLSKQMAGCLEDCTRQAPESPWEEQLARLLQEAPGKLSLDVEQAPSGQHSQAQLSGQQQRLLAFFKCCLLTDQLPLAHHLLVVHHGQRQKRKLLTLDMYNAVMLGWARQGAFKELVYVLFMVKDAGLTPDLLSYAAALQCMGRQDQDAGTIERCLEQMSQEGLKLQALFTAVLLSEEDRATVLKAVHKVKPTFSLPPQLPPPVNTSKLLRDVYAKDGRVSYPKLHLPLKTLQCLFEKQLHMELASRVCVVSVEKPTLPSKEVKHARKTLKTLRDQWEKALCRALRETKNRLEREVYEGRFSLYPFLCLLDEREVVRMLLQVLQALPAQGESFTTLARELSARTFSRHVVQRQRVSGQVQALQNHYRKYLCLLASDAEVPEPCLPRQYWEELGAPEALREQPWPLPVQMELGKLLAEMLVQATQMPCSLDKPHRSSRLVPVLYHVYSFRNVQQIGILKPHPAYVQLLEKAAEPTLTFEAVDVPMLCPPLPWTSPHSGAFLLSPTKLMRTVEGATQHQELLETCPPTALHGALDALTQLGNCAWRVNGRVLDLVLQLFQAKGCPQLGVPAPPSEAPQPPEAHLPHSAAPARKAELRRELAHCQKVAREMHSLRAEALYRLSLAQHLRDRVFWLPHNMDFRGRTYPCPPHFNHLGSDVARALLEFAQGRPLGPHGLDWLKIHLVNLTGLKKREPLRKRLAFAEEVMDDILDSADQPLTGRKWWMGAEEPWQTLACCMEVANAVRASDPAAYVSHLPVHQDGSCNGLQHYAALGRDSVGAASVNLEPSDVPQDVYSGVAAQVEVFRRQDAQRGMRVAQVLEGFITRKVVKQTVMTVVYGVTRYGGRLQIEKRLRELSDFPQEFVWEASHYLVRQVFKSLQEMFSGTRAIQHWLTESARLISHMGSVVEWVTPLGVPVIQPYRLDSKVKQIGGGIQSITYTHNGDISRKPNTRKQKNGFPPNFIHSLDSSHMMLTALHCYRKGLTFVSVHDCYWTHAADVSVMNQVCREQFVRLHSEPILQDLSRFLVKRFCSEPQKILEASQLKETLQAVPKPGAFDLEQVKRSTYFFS

Row | Compound | IC50 [nM]
1 | COC1CCN(c2ccc3c(-c4ccccc4C)cc(=O)oc3n2)C1 (racemic) [Example 07, 7-(3-methoxypyrrolidin-1-yl)-4-(o-tolyl)-2H-pyrano[2,3-b]pyridin-2-one] | 400
2 | COCC1CCN(c2ccc3c(-c4ccccc4C)cc(=O)oc3n2)C1 (racemic) [Example 12, 7-(3-(methoxymethyl)pyrrolidin-1-yl)-4-(o-tolyl)-2H-pyrano[2,3-b]pyridin-2-one] | 900
3 | Cc1ccccc1-c1cc(=O)oc2nc(N3CCC(C)(O)C3)ccc12 (racemic) [Example 13, 7-(3-hydroxy-3-methylpyrrolidin-1-yl)-4-(o-tolyl)-2H-pyrano[2,3-b]pyridin-2-one] | 300
4 | Cc1ccccc1-c1cc(=O)oc2nc(N3CCC(C(N)=O)C3)ccc12 (racemic) [Example 16, 1-(2-oxo-4-(o-tolyl)-2H-pyrano[2,3-b]pyridin-7-yl)pyrrolidine-3-carboxamide] | 2000
5 | Cc1ccccc1-c1cc(=O)oc2nc(N3CCOCC3C)ccc12 (single isomer, unassigned) [Example 14, 7-(3-methylmorpholino)-4-(o-tolyl)-2H-pyrano[2,3-b]pyridin-2-one] | 400
6 | Cc1ccccc1-c1cc(=O)oc2nc(N3CCOCC3C)ccc12 (single isomer, unassigned) [Example 15, 7-(3-methylmorpholino)-4-(o-tolyl)-2H-pyrano[2,3-b]pyridin-2-one] | 2000
7 | COC1CCN(c2ccc3c(-c4ccccc4C)cc(=O)oc3n2)C1 (single isomer, unassigned) [Example 23, 7-(3-methoxypyrrolidin-1-yl)-4-(o-tolyl)-2H-pyrano[2,3-b]pyridin-2-one] | 90
8 | COC1CCN(c2ccc3c(-c4ccccc4C)cc(=O)oc3n2)C1 (single isomer, unassigned) [Example 24, 7-(3-methoxypyrrolidin-1-yl)-4-(o-tolyl)-2H-pyrano[2,3-b]pyridin-2-one] | 3000
9 | COC1CCN(c2ccc3c(-c4ccc(F)cc4Cl)cc(=O)oc3n2)C1 (single isomer, unassigned) [Example 25, 4-(2-chloro-4-fluorophenyl)-7-(3-methoxypyrrolidin-1-yl)-2H-pyrano[2,3-b]pyridin-2-one] | 1000
10 | COC1CCN(c2ccc3c(-c4ccc(F)cc4Cl)cc(=O)oc3n2)C1 (single isomer, unassigned) [Example 26, 4-(2-chloro-4-fluorophenyl)-7-(3-methoxypyrrolidin-1-yl)-2H-pyrano[2,3-b]pyridin-2-one] | 21000
11 | Cc1ccccc1-c1cc(=O)oc2nc(N3CCC(C)(O)C3)ccc12 (single isomer, unassigned) [Example 27, 7-(3-hydroxy-3-methylpyrrolidin-1-yl)-4-(o-tolyl)-2H-pyrano[2,3-b]pyridin-2-one] | 1000
12 | Cc1ccccc1-c1cc(=O)oc2nc(N3CCC(C)(O)C3)ccc12 (single isomer, unassigned) [Example 28, 7-(3-hydroxy-3-methylpyrrolidin-1-yl)-4-(o-tolyl)-2H-pyrano[2,3-b]pyridin-2-one] | 1000
13 | Cc1ccccc1-c1cc(=O)oc2nc(N3CCC(C(N)=O)C3)ccc12 (single isomer, unassigned) [Example 29, 1-(2-oxo-4-(o-tolyl)-2H-pyrano[2,3-b]pyridin-7-yl)pyrrolidine-3-carboxamide] | 7000
14 | Cc1ccccc1-c1cc(=O)oc2nc(N3CCC(C(N)=O)C3)ccc12 (single isomer, unassigned) [Example 30, 1-(2-oxo-4-(o-tolyl)-2H-pyrano[2,3-b]pyridin-7-yl)pyrrolidine-3-carboxamide] | 900
15 | COCC1CCN(c2ccc3c(-c4ccccc4C)cc(=O)oc3n2)C1 (single isomer, unassigned) [Example 31, 7-(3-(methoxymethyl)pyrrolidin-1-yl)-4-(o-tolyl)-2H-pyrano[2,3-b]pyridin-2-one] | 400
16 | COCC1CCN(c2ccc3c(-c4ccccc4C)cc(=O)oc3n2)C1 (single isomer, unassigned) [Example 32, 7-(3-(methoxymethyl)pyrrolidin-1-yl)-4-(o-tolyl)-2H-pyrano[2,3-b]pyridin-2-one] | 1000
17 | Cc1ccccc1-c1cc(=O)oc2nc(N3CCC(C(=O)O)C3)ccc12 (single isomer, unassigned) [Example 33, 1-(2-oxo-4-(o-tolyl)-2H-pyrano[2,3-b]pyridin-7-yl)pyrrolidine-3-carboxylic acid] | 7000
18 | Cc1ccccc1-c1cc(=O)oc2nc(N3CCC(C(=O)O)C3)ccc12 (single isomer, unassigned) [Example 34, 1-(2-oxo-4-(o-tolyl)-2H-pyrano[2,3-b]pyridin-7-yl)pyrrolidine-3-carboxylic acid] | 20000
19 | Cc1ccccc1-c1cc(=O)oc2nc(N3CCCC3C(=O)O)ccc12 (single isomer, unassigned) [Example 37, 1-(2-oxo-4-(o-tolyl)-2H-pyrano[2,3-b]pyridin-7-yl)pyrrolidine-2-carboxylic acid] | 200
20 | Cc1ccccc1-c1cc(=O)oc2nc(N3CCCC3C(=O)O)ccc12 (single isomer, unassigned) [Example 38, 1-(2-oxo-4-(o-tolyl)-2H-pyrano[2,3-b]pyridin-7-yl)pyrrolidine-2-carboxylic acid] | 1000
21 | Cc1ccccc1-c1cc(=O)oc2nc(N(C)C(C)C(N)=O)ccc12 (single isomer, unassigned) [Example 48, 2-(methyl(2-oxo-4-(o-tolyl)-2H-pyrano[2,3-b]pyridin-7-yl)amino)propanamide] | 500
22 | Cc1ccccc1-c1cc(=O)oc2nc(N(C)C(C)C(N)=O)ccc12 (single isomer, unassigned) [Example 49, 2-(methyl(2-oxo-4-(o-tolyl)-2H-pyrano[2,3-b]pyridin-7-yl)amino)propanamide] | 1000
23 | Cc1ccccc1-c1cc(=O)oc2nc(N(C)C)ccc12 [Example 01, 7-(dimethylamino)-4-(o-tolyl)-2H-pyrano[2,3-b]pyridin-2-one] | 1000
24 | Cc1ccccc1-c1cc(=O)oc2nc(N3CCOCC3)ccc12 [Example 02, 7-morpholino-4-(o-tolyl)-2H-pyrano[2,3-b]pyridin-2-one] | 2000
25 | Cc1ccccc1-c1cc(=O)oc2nc(N3CCCC3)ccc12 [Example 03, 7-(pyrrolidin-1-yl)-4-(o-tolyl)-2H-pyrano[2,3-b]pyridin-2-one] | 200
26 | COCCN(C)c1ccc2c(-c3ccccc3C)cc(=O)oc2n1 [Example 04, 7-((2-methoxyethyl)(methyl)amino)-4-(o-tolyl)-2H-pyrano[2,3-b]pyridin-2-one] | 2000
27 | CCN(C)c1ccc2c(-c3ccccc3C)cc(=O)oc2n1 [Example 05, 7-(ethyl(methyl)amino)-4-(o-tolyl)-2H-pyrano[2,3-b]pyridin-2-one] | 400
28 | CC(=O)N1CCN(c2ccc3c(-c4ccccc4C)cc(=O)oc3n2)CC1 [Example 06, 7-(4-acetylpiperazin-1-yl)-4-(o-tolyl)-2H-pyrano[2,3-b]pyridin-2-one] | > 100000
29 | Cc1ccccc1-c1cc(=O)oc2nc(N3CCC(N(C)C)C3)ccc12 (centres unmarked) [Example 08, 7-[3-(dimethylamino)pyrrolidin-1-yl]-4-(o-tolyl)pyrano[2,3-b]pyridin-2-one] | 18000
